Measured values from US10695341B2, “Compositions and methods for treating endometriosis” (UNIVERSITY OF SOUTH FLORIDA, priority 2014, dated 2020).

Assays:
endometriotic lesions = assay: Immunohistochemistry of lesions (CK8, ERα, PR); format: in vivo, mouse; details: PR immunohistochemical staining, lesions from HCQ-treated mice
Description: Collected samples were immediately preserved in 10% neutral buffered formalin at the animal facility. Samples were embedded in paraffin, sectioned, and transferred to slides for hematoxylin/eosin and immunohistochemical staining. A pathologist reviewed each case and delimited the region of interest, containing epithelial and stromal cells, for each specimen. A mouse tissue microarray was prepared at the Tissue Core Facility at the Moffitt Cancer Center. The mouse tissue microarray contained a total of 113 core samples, which included 10 uterine horns and 10 ovaries from both PBS and HCQ treated mice. As control specimens for the utilized antibodies, the TMA included mouse mammary tissue, liver, small intestine, and lymph nodes from a PBS treated mouse. Lesions were analyzed from independent blocks. Slides were stained using a Leica Bond RX automated system (Leica Biosytems, Buffalo Grove, Ill.) following manufacturers instructions with proprietary reagents. Slides were deparaffinized on an automated system with Dewax Solution (Leica Biosystems). […]

[1] = system: G-CSF, eotaxin, and IP-10; assay: Peritoneal fluid cytokine/chemokine magnetic bead panel; format: in vivo, mouse
Description: After animals were euthanized, 1 ml of sterile PBS was injected into the peritoneal cavity, the abdominal area was gently massaged, and the fluid collected. The collected fluid was centrifuged at 1,390 rpm for 5 min at 4° C. and the resulting supernatant was then stored at −80° C. Levels of chemokines and cytokines were analyzed using a MCYTOMAG-70K-PX32 (Millipore, Billerica, Mass.) following manufacturer's instructions. Briefly, 200 μl of wash buffer was added to each well and incubated for 10 min at room temperature in a plate shaker. After incubation, the wash buffer was decanted and the plate was inverted and tapped on absorbent towel several times. Then, 25 μl of assay buffer was added to each well followed by 25 μl of concentration standards, assay controls, or samples. The premixed bottle was vortexed and 25 μl of the beads were added to each well. The plate was incubated overnight at 4° C., protected from light. Then the plate was incubated for 1 min on the hand-held magnet and the well content was gently decanted and tapped on absorbent pads. Each well was washed twice using 200 μl of wash buffer, followed by the incubation on the hand-held magnet. Antibody detection solution was allowed to warm to room temperature, and then 25 μl was added to each well and incubated for 1 h at room temperature on a plate shaker, protected from light. Next, 25 μl of Streptavidin-Phycoerythrin was added to each well containing the detection antibodies and incubated for 30 min at room temperature protected from light on a plate shaker. After the incubation, the plate was washed twice as previously described and 150 μl of Sheath Fluid was added to each well. The plate was analyzed using MAGPIX™ instrument and xPONENT software solutions, version 4.2.

ATG5 and ATG3 mRNA = assay: Real-time PCR of autophagic mediators in lesions; format: in vivo, C57BL/6 mice; details: lesions of HCQ-treated vs PBS-treated mice
Description: Total RNA was isolated using the RNeasy kit following the manufacturer's instructions (QIAGEN, Valencia, Calif.). RNA concentration and purity was determined using a 1000 NanoDrop (Thermo Scientific, Pittsburgh, Pa.). Lesion mass varied by samples, and this was reflected in the RNA amounts obtained (range of mass: 0.9 mg to 25 mg). Three RNA samples from uterine horns, having a 260/280 ratio higher than 1.8 and a 260/230 ratio higher than 1.7, were selected from recipient, donor, HCQ-treated, and PBS-treated animals (12 samples in total) for RT2-PCR analyses. Synthesis of cDNA was performed using 0.5 μg of total RNA, after DNA elimination step using the RT2 First Strand kit per manufacturer instructions (QIAGEN, Valencia, Calif.). After DNA elimination, the reaction mix was incubated at 42° C. for 15 min, followed by 95° C. for 5 min using a DNA Engine® Peltier Thermal cycler (Bio-Rad, Hercules, Calif.). A total of 102 μl of the cDNA reaction mix was added to the master mix containing 1,248 μl of RNAse-free water and 1,350 μl of 2× RT2 SYBR green master mix. Twenty-five μl of the master mix were carefully added to each well of the RT2 profiler PCR autophagy array. Quantification was performed using the Applied Biosystems cycler (Life Technologies, Grand Island, N.Y.). […] The PCR cycling program finalized with a melt curve analysis and data was analyzed using the QIAGEN web-based software.

[2] = HCQ-treated vs PBS-treated mice

## CCN(CCO)CCCC(C)Nc1ccnc2cc(Cl)ccc12 (stereo not drawn) [HCQ, hydroxychloroquine]
Endometriotic lesions
  stained lesions with absence of glandular components: four out of the seven
[1]; HCQ-treated (n=5) vs PBS-treated mice, p=0.0079
  IP-10 in peritoneal fluid: significantly increased
[1]; [2]
  G-CSF in peritoneal fluid: remained unchanged
  eotaxin in peritoneal fluid: remained unchanged
ATG5 and ATG3 mRNA; p=0.0248
  ATG3 mRNA in lesions: significant increase
ATG5 and ATG3 mRNA; p=0.0499
  ATG5 mRNA in lesions: significant increase
